These results are taken from US11564969B2, “Immunorhelin compounds for intracellular infections” (ISR IMMUNE SYSTEM REGULATION HOLDING AB (PUBL), priority 2017, dated 2023).

Square brackets hold non-standard residues; d marks the D form. Peptide text beside a SMILES is read from it. dHis(τ-Bn) = N[C@H](Cc1cn(Cc2ccccc2)cn1)C(=O)O; d2Nal = N[C@H](Cc1ccc2ccccc2c1)C(=O)O; pGlu = O=C1CC[C@@H](C(=O)O)N1

The target in one data set is T1, GnRHR (Homo sapiens, UniProt P30968).
T1 sequence (P30968 1-328): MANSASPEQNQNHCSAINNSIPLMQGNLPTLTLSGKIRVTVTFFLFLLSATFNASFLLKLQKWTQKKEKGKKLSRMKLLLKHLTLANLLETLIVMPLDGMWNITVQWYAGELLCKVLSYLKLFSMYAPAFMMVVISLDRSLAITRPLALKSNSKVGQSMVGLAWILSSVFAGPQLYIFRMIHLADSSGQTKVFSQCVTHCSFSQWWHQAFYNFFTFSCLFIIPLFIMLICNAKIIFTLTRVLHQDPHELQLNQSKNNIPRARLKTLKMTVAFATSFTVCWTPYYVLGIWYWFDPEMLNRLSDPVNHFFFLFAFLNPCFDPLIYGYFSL
The conditions noted are these: 1000.0.

Data set [1] is described as follows: Solubility analysis in PBS (Analysis Method B). In kind it is physicochemical. The conditions noted are these: pH 7.4. How it is done: The solubility of compounds of the invention was tested as described in the general methods. Solubility was then graded according to a rating between 1 to 5, where 1 is most soluble and 5 is least soluble.

Consider `CC(C)C[C@H](NC(=O)[C@@H](Cc1ccc2ccccc2c1)NC(=O)[C@H](Cc1ccc(O)cc1)NC(=O)[C@H](CO)NC(=O)[C@H](Cc1c[nH]c2ccccc12)NC(=O)[C@H](Cc1c[nH]cn1)NC(=O)[C@@H]1CCC(=O)N1)C(=O)N[C@@H](Cc1ccc(O)cc1)C(=O)N1CCC[C@H]1C(=O)NCC(N)=O` [Compound 25, pGlu-His-Trp-Ser-Tyr-D-Nal-Leu-Tyr-Pro-Gly-amide] ([pGlu]HWSY[d2Nal]LYPG-NH2), for which the “GNRHR Stimulation at 1 μM” value on GnRHR stood at 82 percentage. This compound also came in with a Solubility grading in data set [1] of 4.

In the case of `N=C(N)NCCC[C@H](NC(=O)[C@H](Cc1c[nH]c2ccccc12)NC(=O)[C@@H](Cc1ccc2ccccc2c1)NC(=O)[C@H](Cc1c[nH]cn1)NC(=O)[C@H](CO)NC(=O)[C@H](Cc1c[nH]c2ccccc12)NC(=O)[C@H](Cc1c[nH]cn1)NC(=O)[C@@H]1CCC(=O)N1)C(=O)N1CCC[C@H]1C(=O)NCC(N)=O` [Compound 27, pGlu-His-Trp-Ser-His-D-Nal-Trp-Arg-Pro-Gly-amide] ([pGlu]HWSH[d2Nal]WRPG-NH2), the “GNRHR Stimulation at 1 μM” value on GnRHR is 108 percentage. This compound had a Solubility grading in data set [1] of 1.

`CC(C)C[C@H](NC(=O)[C@@H](Cc1ccc2ccccc2c1)NC(=O)[C@H](Cc1c[nH]cn1)NC(=O)[C@H](CO)NC(=O)[C@H](Cc1c[nH]c2ccccc12)NC(=O)[C@H](Cc1c[nH]cn1)NC(=O)[C@@H]1CCC(=O)N1)C(=O)N[C@@H](Cc1ccc(O)cc1)C(=O)N1CCC[C@H]1C(=O)NCC(N)=O` [Compound 28, pGlu-His-Trp-Ser-His-D-Nal-Leu-Tyr-Pro-Gly-amide] ([pGlu]HWSH[d2Nal]LYPG-NH2): the “GNRHR Stimulation at 1 μM” value on GnRHR is listed as 95 percentage. Besides, in data set [1], the Solubility grading was 2.

Consider `NC(=O)CNC(=O)[C@@H]1CCCN1C(=O)[C@H](Cc1ccc(O)cc1)NC(=O)[C@H](Cc1c[nH]c2ccccc12)NC(=O)[C@@H](Cc1ccc2ccccc2c1)NC(=O)[C@H](Cc1ccc(O)cc1)NC(=O)[C@H](CO)NC(=O)[C@H](Cc1c[nH]c2ccccc12)NC(=O)[C@H](Cc1c[nH]cn1)NC(=O)[C@@H]1CCC(=O)N1` [Compound 30, pGlu-His-Trp-Ser-Tyr-D-Nal-Trp-Tyr-Pro-Gly-amide] ([pGlu]HWSY[d2Nal]WYPG-NH2), for which the “GNRHR Stimulation at 1 μM” value on GnRHR came out at 12 percentage. Besides, the Solubility grading in data set [1] stood at 1.

Consider `NC(=O)CNC(=O)[C@@H]1CCCN1C(=O)[C@H](Cc1ccc(O)cc1)NC(=O)[C@H](Cc1c[nH]c2ccccc12)NC(=O)[C@@H](Cc1ccc2ccccc2c1)NC(=O)[C@H](Cc1c[nH]cn1)NC(=O)[C@H](CO)NC(=O)[C@H](Cc1c[nH]c2ccccc12)NC(=O)[C@H](Cc1c[nH]cn1)NC(=O)[C@@H]1CCC(=O)N1` [Compound 33, pGlu-His-Trp-Ser-His-D-Nal-Trp-Tyr-Pro-Gly-amide] ([pGlu]HWSH[d2Nal]WYPG-NH2), for which the “GNRHR Stimulation at 1 μM” value at GnRHR stood at 67 percentage. Besides, the Solubility grading in data set [1] turned out to be 2.

Turning to `CCNC(=O)[C@@H]1CCCN1C(=O)[C@H](CCCNC(=N)N)NC(=O)[C@H](CC(C)C)NC(=O)[C@@H](CC(C)C)NC(=O)[C@H](Cc1c[nH]cn1)NC(=O)[C@H](CO)NC(=O)[C@H](Cc1c[nH]c2ccccc12)NC(=O)[C@H](Cc1c[nH]cn1)NC(=O)[C@@H]1CCC(=O)N1` [Compound 42, pGlu-His-Trp-Ser-His-D-Leu-Leu-Arg-Pro-NHEt] ([pGlu]HWSH[dL]LRP-NHEt), the “GNRHR Stimulation at 1 μM” value on GnRHR is recorded as 102 percentage. For the same compound, the Solubility grading in data set [1] was determined as 1.

Take `CCNC(=O)[C@@H]1CCCN1C(=O)[C@H](CCCNC(=N)N)NC(=O)[C@H](Cc1c[nH]c2ccccc12)NC(=O)[C@@H](CC(C)C)NC(=O)[C@H](Cc1ccc(O)cc1)NC(=O)[C@H](CO)NC(=O)[C@H](Cc1c[nH]c2ccccc12)NC(=O)[C@H](Cc1c[nH]cn1)NC(=O)[C@@H]1CCC(=O)N1` [Compound 44, pGlu-His-Trp-Ser-Tyr-D-Leu-Trp-Arg-Pro-NHEt] ([pGlu]HWSY[dL]WRP-NHEt): the “GNRHR Stimulation at 1 μM” value on GnRHR is 111 percentage. In data set [1], this compound yielded a Solubility grading of 2.

`CCNC(=O)[C@@H]1CCCN1C(=O)[C@H](Cc1ccc(O)cc1)NC(=O)[C@H](CC(C)C)NC(=O)[C@@H](CC(C)C)NC(=O)[C@H](Cc1ccc(O)cc1)NC(=O)[C@H](CO)NC(=O)[C@H](Cc1c[nH]c2ccccc12)NC(=O)[C@H](Cc1c[nH]cn1)NC(=O)[C@@H]1CCC(=O)N1` [Compound 45, pGlu-His-Trp-Ser-Tyr-D-Leu-Leu-Tyr-Pro-NHEt] ([pGlu]HWSY[dL]LYP-NHEt): the “GNRHR Stimulation at 1 μM” value on GnRHR worked out at 105 percentage. In data set [1], the Solubility grading worked out at 2.

With `CCNC(=O)[C@@H]1CCCN1C(=O)[C@H](CCCNC(=N)N)NC(=O)[C@H](Cc1c[nH]c2ccccc12)NC(=O)[C@@H](CC(C)C)NC(=O)[C@H](Cc1c[nH]cn1)NC(=O)[C@H](CO)NC(=O)[C@H](Cc1c[nH]c2ccccc12)NC(=O)[C@H](Cc1c[nH]cn1)NC(=O)[C@@H]1CCC(=O)N1` [Compound 47, pGlu-His-Trp-Ser-His-D-Leu-Trp-Arg-Pro-NHEt] ([pGlu]HWSH[dL]WRP-NHEt), the “GNRHR Stimulation at 1 μM” value at GnRHR is 119 percentage. In data set [1], this compound registered a Solubility grading of 1.

Turning to `CCNC(=O)[C@@H]1CCCN1C(=O)[C@H](Cc1ccc(O)cc1)NC(=O)[C@H](CC(C)C)NC(=O)[C@@H](CC(C)C)NC(=O)[C@H](Cc1c[nH]cn1)NC(=O)[C@H](CO)NC(=O)[C@H](Cc1c[nH]c2ccccc12)NC(=O)[C@H](Cc1c[nH]cn1)NC(=O)[C@@H]1CCC(=O)N1` [Compound 48, pGlu-His-Trp-Ser-His-D-Leu-Leu-Tyr-Pro-NHEt] ([pGlu]HWSH[dL]LYP-NHEt), on GnRHR, the “GNRHR Stimulation at 1 μM” value was 118 percentage. In data set [1], this compound came in with a Solubility grading of 2.

With `CCNC(=O)[C@@H]1CCCN1C(=O)[C@H](Cc1ccc(O)cc1)NC(=O)[C@H](Cc1c[nH]c2ccccc12)NC(=O)[C@@H](CC(C)C)NC(=O)[C@H](Cc1ccc(O)cc1)NC(=O)[C@H](CO)NC(=O)[C@H](Cc1c[nH]c2ccccc12)NC(=O)[C@H](Cc1c[nH]cn1)NC(=O)[C@@H]1CCC(=O)N1` [Compound 49, pGlu-His-Trp-Ser-Tyr-D-Leu-Trp-Tyr-Pro-NHEt] ([pGlu]HWSY[dL]WYP-NHEt), the “GNRHR Stimulation at 1 μM” value on GnRHR amounted to 77 percentage. The same compound showed a Solubility grading in data set [1] of 4.

On to `CCNC(=O)[C@@H]1CCCN1C(=O)[C@H](Cc1ccc(O)cc1)NC(=O)[C@H](Cc1c[nH]c2ccccc12)NC(=O)[C@@H](CC(C)C)NC(=O)[C@H](Cc1c[nH]cn1)NC(=O)[C@H](CO)NC(=O)[C@H](Cc1c[nH]c2ccccc12)NC(=O)[C@H](Cc1c[nH]cn1)NC(=O)[C@@H]1CCC(=O)N1` [Compound 50, pGlu-His-Trp-Ser-His-D-Leu-Trp-Tyr-Pro-NHEt] ([pGlu]HWSH[dL]WYP-NHEt), for which the “GNRHR Stimulation at 1 μM” value on GnRHR was found to be 105 percentage. In data set [1], this compound yielded a Solubility grading of 1.

On to `CCNC(=O)[C@@H]1CCCN1C(=O)[C@H](CCCNC(=N)N)NC(=O)[C@H](CC(C)C)NC(=O)[C@@H](Cc1cn(Cc2ccccc2)cn1)NC(=O)[C@H](Cc1c[nH]cn1)NC(=O)[C@H](CO)NC(=O)[C@H](Cc1c[nH]c2ccccc12)NC(=O)[C@H](Cc1c[nH]cn1)NC(=O)[C@@H]1CCC(=O)N1` [Compound 56, pGlu-His-Trp-Ser-His-D-Bhi-Leu-Arg-Pro-NHEt] ([pGlu]HWSH[dHis(τ-Bn)]LRP-NHEt), for which the “GNRHR Stimulation at 1 μM” value on GnRHR is 96 percentage. In data set [1], this compound yielded a Solubility grading of 1.

Take `CCNC(=O)[C@@H]1CCCN1C(=O)[C@H](Cc1ccc(O)cc1)NC(=O)[C@H](CC(C)C)NC(=O)[C@@H](Cc1cn(Cc2ccccc2)cn1)NC(=O)[C@H](Cc1ccc(O)cc1)NC(=O)[C@H](CO)NC(=O)[C@H](Cc1c[nH]c2ccccc12)NC(=O)[C@H](Cc1c[nH]cn1)NC(=O)[C@@H]1CCC(=O)N1` [Compound 59, pGlu-His-Trp-Ser-Tyr-D-Bhi-Leu-Tyr-Pro-NHEt] ([pGlu]HWSY[dHis(τ-Bn)]LYP-NHEt): the “GNRHR Stimulation at 1 μM” value on GnRHR was 85 percentage. The same compound gave a Solubility grading in data set [1] of 4.

`CCNC(=O)[C@@H]1CCCN1C(=O)[C@H](CCCNC(=N)N)NC(=O)[C@H](Cc1c[nH]c2ccccc12)NC(=O)[C@@H](Cc1cn(Cc2ccccc2)cn1)NC(=O)[C@H](Cc1c[nH]cn1)NC(=O)[C@H](CO)NC(=O)[C@H](Cc1c[nH]c2ccccc12)NC(=O)[C@H](Cc1c[nH]cn1)NC(=O)[C@@H]1CCC(=O)N1` [Compound 60, pGlu-His-Trp-Ser-His-D-Bhi-Trp-Arg-Pro-NHEt] ([pGlu]HWSH[dHis(τ-Bn)]WRP-NHEt): the “GNRHR Stimulation at 1 μM” value on GnRHR is recorded as 102 percentage. Also, the Solubility grading in data set [1] is 2.

For the compound `CCNC(=O)[C@@H]1CCCN1C(=O)[C@H](Cc1ccc(O)cc1)NC(=O)[C@H](CC(C)C)NC(=O)[C@@H](Cc1cn(Cc2ccccc2)cn1)NC(=O)[C@H](Cc1c[nH]cn1)NC(=O)[C@H](CO)NC(=O)[C@H](Cc1c[nH]c2ccccc12)NC(=O)[C@H](Cc1c[nH]cn1)NC(=O)[C@@H]1CCC(=O)N1` [Compound 61, pGlu-His-Trp-Ser-His-D-Bhi-Leu-Tyr-Pro-NHEt] ([pGlu]HWSH[dHis(τ-Bn)]LYP-NHEt), the “GNRHR Stimulation at 1 μM” value on GnRHR is reported as 112 percentage. The same compound had a Solubility grading in data set [1] of 3.

`CCNC(=O)[C@@H]1CCCN1C(=O)[C@H](Cc1ccc(O)cc1)NC(=O)[C@H](Cc1c[nH]c2ccccc12)NC(=O)[C@@H](Cc1cn(Cc2ccccc2)cn1)NC(=O)[C@H](Cc1ccc(O)cc1)NC(=O)[C@H](CO)NC(=O)[C@H](Cc1c[nH]c2ccccc12)NC(=O)[C@H](Cc1c[nH]cn1)NC(=O)[C@@H]1CCC(=O)N1` [Compound 62, pGlu-His-Trp-Ser-Tyr-D-Bhi-Trp-Tyr-Pro-NHEt] ([pGlu]HWSY[dHis(τ-Bn)]WYP-NHEt): the “GNRHR Stimulation at 1 μM” value at GnRHR was 77 percentage. For the same compound, the Solubility grading in data set [1] is given as 5.
